From patent US20260232763A1 (Kadmon Corporation, LLC, priority 2023, published 2026)

Assays:
[1] = Example 3 Part 2 (Regimen B) dabigatran etexilate + belumosudil plasma PK; assay type: in vivo, human; conditions: for half-life: read-out: T1/2, geometric mean (converted)
Description: The ratio was defined as test/reference. In addition, the intraparticipant variability were also presented. […] No formal interim analyses were performed for this study.

[2] = clinical; conditions: male, human, in vivo
Description: On Day 10, the victim and perpetrator IMPs were administered simultaneously.
On the evening before each dose, participants were provided with a light snack and were required to fast from all food and drink (except water) for a minimum of 10 hours until the following morning. All study interventions were administered in the fed state, following completion of a standard breakfast (with dosing planned to occur 30 minutes after the start of the breakfast).
The PK parameters underwent a natural logarithmic transformation and were analyzed using a mixed effect modelling technique. Adjusted geometric mean ratios and 90% confidence intervals (CIs) of the ratios were obtained for each comparison. The ratio was defined as test/reference. In addition, the intraparticipant variability were also presented. […] No formal interim analyses were performed for this study.

[3] = system: pregnant rabbits; conditions: cited from earlier work
[4] = molecular target: CYP3A4 (Homo sapiens, UniProt P08684); conditions: in vitro; cited from earlier work
CYP3A4, sequence (P08684 whole entry): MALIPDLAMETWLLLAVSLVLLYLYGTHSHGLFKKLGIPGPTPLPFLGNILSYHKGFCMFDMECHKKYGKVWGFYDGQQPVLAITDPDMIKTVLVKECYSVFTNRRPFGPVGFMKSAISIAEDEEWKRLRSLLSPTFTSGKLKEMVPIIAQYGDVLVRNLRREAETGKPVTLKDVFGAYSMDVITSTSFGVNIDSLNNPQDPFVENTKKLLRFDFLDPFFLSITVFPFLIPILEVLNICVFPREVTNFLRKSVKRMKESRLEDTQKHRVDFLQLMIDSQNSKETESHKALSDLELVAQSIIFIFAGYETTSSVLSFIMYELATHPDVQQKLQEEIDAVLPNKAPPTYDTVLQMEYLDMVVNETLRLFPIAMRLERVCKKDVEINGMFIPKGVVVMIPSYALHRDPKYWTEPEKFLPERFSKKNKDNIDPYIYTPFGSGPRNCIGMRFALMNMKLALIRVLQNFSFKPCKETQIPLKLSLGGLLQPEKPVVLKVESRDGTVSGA

[5] = molecular target: P-gp (Homo sapiens, UniProt P08183); conditions: in vitro, cited from earlier work
P-gp, sequence (P08183 whole entry): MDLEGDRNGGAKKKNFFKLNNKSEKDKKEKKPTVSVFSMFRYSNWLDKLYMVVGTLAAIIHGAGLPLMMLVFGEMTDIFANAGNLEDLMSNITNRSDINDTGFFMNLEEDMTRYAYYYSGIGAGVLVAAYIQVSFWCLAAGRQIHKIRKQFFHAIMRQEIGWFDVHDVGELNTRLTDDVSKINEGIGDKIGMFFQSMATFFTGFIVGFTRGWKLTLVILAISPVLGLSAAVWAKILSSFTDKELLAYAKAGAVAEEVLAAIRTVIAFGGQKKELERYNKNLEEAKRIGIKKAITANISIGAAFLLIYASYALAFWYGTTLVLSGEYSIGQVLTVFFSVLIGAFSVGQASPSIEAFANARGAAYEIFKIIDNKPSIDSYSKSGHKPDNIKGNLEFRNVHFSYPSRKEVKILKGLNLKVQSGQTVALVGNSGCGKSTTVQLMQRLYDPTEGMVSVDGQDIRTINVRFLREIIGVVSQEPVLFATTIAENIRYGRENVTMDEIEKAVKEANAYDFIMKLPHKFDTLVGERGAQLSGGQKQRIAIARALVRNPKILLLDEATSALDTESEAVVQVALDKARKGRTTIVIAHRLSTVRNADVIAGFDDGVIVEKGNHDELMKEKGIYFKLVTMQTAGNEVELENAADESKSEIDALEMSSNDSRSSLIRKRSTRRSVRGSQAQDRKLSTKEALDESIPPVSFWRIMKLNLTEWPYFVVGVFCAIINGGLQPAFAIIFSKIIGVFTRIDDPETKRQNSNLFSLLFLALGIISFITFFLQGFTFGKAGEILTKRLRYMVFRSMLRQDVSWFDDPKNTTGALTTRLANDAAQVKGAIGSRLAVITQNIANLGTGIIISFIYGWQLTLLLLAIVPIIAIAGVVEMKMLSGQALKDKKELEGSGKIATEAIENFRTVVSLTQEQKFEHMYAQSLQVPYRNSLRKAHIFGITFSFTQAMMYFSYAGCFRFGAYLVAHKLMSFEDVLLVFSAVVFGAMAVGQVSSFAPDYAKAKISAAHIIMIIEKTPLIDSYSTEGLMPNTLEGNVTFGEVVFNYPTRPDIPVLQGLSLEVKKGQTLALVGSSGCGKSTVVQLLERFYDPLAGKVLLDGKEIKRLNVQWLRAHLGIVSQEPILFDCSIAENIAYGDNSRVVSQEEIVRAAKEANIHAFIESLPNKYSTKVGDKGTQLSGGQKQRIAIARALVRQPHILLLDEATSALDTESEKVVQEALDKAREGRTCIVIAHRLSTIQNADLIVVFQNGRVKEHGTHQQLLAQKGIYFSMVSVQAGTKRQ

[6] = molecular target: T1, CYP1A2 (Homo sapiens, UniProt P05177); conditions: in vitro; cited from earlier work
T1 sequence (P05177 1-516): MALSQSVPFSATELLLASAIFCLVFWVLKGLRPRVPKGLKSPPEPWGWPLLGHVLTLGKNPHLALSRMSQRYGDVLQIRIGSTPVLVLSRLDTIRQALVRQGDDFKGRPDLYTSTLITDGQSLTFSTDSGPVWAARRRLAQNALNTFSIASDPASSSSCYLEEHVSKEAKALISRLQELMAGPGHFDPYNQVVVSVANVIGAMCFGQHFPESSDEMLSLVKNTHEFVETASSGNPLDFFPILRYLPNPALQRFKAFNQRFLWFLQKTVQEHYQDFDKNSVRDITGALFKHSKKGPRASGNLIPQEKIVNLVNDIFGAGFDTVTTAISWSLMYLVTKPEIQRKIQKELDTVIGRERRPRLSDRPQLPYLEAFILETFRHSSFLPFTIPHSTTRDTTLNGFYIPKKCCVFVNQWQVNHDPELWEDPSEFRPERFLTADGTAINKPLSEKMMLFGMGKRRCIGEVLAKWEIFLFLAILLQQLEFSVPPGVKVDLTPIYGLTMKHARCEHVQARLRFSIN

[7] = molecular target: CYP2C19 (Homo sapiens, UniProt P33261); conditions: in vitro; cited from earlier work
CYP2C19, sequence (P33261 whole entry): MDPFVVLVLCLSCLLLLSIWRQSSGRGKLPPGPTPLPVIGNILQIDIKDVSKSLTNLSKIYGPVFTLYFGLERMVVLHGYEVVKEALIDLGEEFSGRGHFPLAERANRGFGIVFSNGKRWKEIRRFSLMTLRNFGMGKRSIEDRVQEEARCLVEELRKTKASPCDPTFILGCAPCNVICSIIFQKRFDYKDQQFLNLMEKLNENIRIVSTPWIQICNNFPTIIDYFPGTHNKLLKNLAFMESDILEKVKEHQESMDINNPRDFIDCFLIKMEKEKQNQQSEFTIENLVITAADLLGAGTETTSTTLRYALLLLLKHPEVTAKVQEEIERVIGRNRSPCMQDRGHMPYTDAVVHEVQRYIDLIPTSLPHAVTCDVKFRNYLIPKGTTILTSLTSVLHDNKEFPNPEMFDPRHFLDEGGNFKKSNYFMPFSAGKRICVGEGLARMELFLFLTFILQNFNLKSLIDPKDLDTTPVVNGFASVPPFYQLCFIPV

[8] = molecular target: T2, UGT1A1 (Homo sapiens, UniProt P22309); conditions: in vitro; cited from earlier work
T2 sequence (P22309 26-533): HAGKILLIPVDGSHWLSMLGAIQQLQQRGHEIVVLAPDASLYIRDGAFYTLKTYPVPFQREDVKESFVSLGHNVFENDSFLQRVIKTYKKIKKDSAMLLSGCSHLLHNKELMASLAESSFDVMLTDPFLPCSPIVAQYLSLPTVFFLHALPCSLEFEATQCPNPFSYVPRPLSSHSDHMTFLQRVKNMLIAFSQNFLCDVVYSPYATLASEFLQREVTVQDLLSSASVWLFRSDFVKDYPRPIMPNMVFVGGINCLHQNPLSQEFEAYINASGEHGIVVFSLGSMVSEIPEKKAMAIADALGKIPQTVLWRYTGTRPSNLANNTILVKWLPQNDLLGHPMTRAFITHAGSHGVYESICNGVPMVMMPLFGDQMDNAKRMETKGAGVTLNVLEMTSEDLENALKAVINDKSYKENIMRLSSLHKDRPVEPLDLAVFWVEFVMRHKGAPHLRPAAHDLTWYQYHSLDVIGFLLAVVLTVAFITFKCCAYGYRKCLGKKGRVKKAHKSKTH

[9] = molecular target: T3, UGT1A9 (Homo sapiens, UniProt O60656); conditions: in vitro; cited from earlier work
T3 sequence (O60656 26-530): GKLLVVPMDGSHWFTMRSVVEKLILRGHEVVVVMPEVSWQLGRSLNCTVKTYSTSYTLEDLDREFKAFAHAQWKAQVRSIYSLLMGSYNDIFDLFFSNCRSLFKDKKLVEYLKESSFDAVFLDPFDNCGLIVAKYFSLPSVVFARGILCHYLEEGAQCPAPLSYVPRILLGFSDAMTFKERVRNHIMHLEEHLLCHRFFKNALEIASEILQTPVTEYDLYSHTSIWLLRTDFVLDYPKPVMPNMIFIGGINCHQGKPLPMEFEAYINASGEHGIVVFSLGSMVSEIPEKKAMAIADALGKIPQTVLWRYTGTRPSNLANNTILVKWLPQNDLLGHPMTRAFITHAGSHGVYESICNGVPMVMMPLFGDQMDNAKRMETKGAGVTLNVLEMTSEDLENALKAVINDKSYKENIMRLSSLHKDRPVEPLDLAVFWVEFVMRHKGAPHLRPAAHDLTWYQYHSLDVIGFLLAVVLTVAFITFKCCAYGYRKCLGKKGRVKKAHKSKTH

[10] = system: bacterial mutagenicity (Ames); conditions: cited from earlier work
[11] = system: rat bone marrow; conditions: rat bone marrow micronucleus; cited from earlier work
[12] = system: dogs; conditions: cited from earlier work
[13] = system: rats; conditions: cited from earlier work
[14] = Part 2, Belumosudil alone (Day 5), 200 mg
[15] = Part 2, Dabigatran etexilate + belumosudil (Day 12), 200 mg QD

CC(C)NC(=O)COc1cccc(-c2nc(Nc3ccc4[nH]ncc4c3)c3ccccc3n2)c1 [belumosudil, 2-{3-[4-(1H-indazol-5-ylamino)-2-quinazolinyl]phenoxy}-N-(propan-2-yl) acetamide]
AUC(0-tau), geometric mean [1, 14]: 8490 ng·h/mL
Cmax, geometric mean [1, 14]: 1710 ng/mL
T1/2, geometric mean [1, 14]: 6.199 h
AUC(0-last), geometric mean [1, 15]: 12 000 ng · h/mL
Cmax, geometric mean [1, 15]: 2180 ng/mL
T1/2, geometric mean [1, 15]: 10.371 h
AUC ([1]; male, human, plasma, oral, 200 mg QD, read-out: AUC(0-tau), geometric mean): 11000 ng·h/mL
half-life ([1]; male, human, plasma, oral, 200 mg, Part 2, Belumosudil alone (Day 5), 200 mg): ~6 h
half-life ([1]; male, human, plasma, oral, 200 mg, Part 2, Dabigatran etexilate + belumosudil (Day 12), 200 mg QD): ~10 h
Tmax ([1]; male, human, plasma, oral, 200 mg, read-out: median Tmax): 1.5 to 2 h
Tmax [2]: 1.5 to 2 h
increase of exposures (Cmax and AUC) following multiple dosing [2]: 1.21-1.57 fold
AUC(0-last), geometric mean ([2]; 200 mg): 9710 ng·h/mL
AUC(0-tau), geometric mean ([2]; 200 mg): 9710 ng·h/mL
Cmax, geometric mean ([2]; 200 mg): 2080 ng/mL
T1/2, geometric mean ([2]; 200 mg): 4.901 h
half-life ([2]; 200 mg): ~5 h
participants reporting a TEAE (52 participants, Grade 1 (mild)): 3.8%
number of TEAEs judged related to belumosudil (headache): 1 event
safety and tolerability when coadministered with raltegravir, dabigatran etexilate, rosuvastatin calcium (healthy male participants, 200 mg QD): safe and well tolerated
serious adverse events or TEAEs leading to withdrawal or death (in vivo): No serious adverse events
maternal exposures (AUC) with adverse developmental outcomes, times the human exposure (AUC) at the recommended dose ([3]; pregnant rabbits, period of organogenesis): ≥ 0.07 times
dose with embryo-fetal effects ([3]; rabbits, oral): ≥ 50 mg/kg/day
dose with maternal toxicity (body weight loss and mortality) ([3]; rabbits, oral): ≥ 125 mg/kg/day
metabolism [4]: primarily metabolized by CYP3A4 and to a lesser extent by CYP2C8, CYP2D6, and UGT1A9
P-gp inhibition ([5]; at clinically relevant concentrations): inhibits
P-gp substrate status [5]: substrate of P-gp
CYP1A2 inhibition [6]: inhibitor
CYP2C19 inhibition [7]: inhibitor
UGT1A1 inhibition [8]: inhibitor
UGT1A9 inhibition [9]: inhibitor
genotoxicity [10]: not genotoxic
genotoxicity [11]: not genotoxic
dose with spermatozoa degeneration [12]: 35 mg/kg/day
dose with decreased follicular development in ovaries [13]: 275 mg/kg/day
